Assay results: patent US12552767B2, “3-heteroaryl pyrrolidine and piperidine orexin receptor agonists” (Merck Sharp & Dohme LLC, priority 2020, dated 2026)

Molecular target: T1, human OX2R (Homo sapiens, UniProt O43614)
T1 construct: expressed in transfected cells; host or cells: CHO (Chinese hamster ovary) cells, grown under G418 selection
T1 sequence (O43614 1-444): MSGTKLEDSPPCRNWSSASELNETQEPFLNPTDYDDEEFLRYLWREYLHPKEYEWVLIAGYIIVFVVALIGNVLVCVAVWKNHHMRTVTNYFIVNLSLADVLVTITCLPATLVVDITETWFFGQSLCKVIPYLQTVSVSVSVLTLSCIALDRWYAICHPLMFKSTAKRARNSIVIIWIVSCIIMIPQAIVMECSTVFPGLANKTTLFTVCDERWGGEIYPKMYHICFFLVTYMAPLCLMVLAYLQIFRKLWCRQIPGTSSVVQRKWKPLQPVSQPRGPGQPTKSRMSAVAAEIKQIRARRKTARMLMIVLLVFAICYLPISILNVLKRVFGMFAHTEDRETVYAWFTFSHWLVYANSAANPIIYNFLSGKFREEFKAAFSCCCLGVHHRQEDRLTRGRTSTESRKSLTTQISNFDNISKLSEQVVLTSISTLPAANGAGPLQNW
Experiment: IP-One (IPOne) orexin receptor agonist assay in CHO cells expressing human OX2R
Type: cell-based
Procedure, shortened: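 CHO cells stably expressing human OX2R were stimulated with compound (10-point ½-log dilutions) for 2 h at 37 °C. IP-1 accumulation was read by HTRF (IP-One, 665/620 nm). EC50 from a four-parameter fit; % effect relative to 1 μM reference agonist control.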

EC50 (CHO cells expressing human OX2R, IP-One IP-1 detection, 2 hours incubation, four parameter logistic fit, read-out: OX2R Potency, EC50): 7.14 µM
% of reference agonist maximal effect (human OX2R, percentage of sample raw value/mean max effect (reference compound at 1 uM with 100% activity)): 71.1%
SMILES: C=CCC(=O)N1CCC[C@H](c2cc[nH]n2)[C@@H]1CO[C@H]1CC[C@@H](C(C)C)CC1 (relative stereo) [Example 84, 1-((CIS)-2-((((CIS)-4-isopropylcyclohexyl)oxy)methyl)-3-(1H-pyrazol-3-yl)piperidin-1-yl)but-3-en-1-one]
